Test system: H. contortus larvae
Experiment: H. contortus Larval Development Assay
Type: cell-based
Conditions: at 10 μM
Source text: Compounds can be evaluated for anthelmintic activity according to the H. contortus Larval Development Assay described in Journal of Helminthology, 1984, 58, 107.

Nc1cc(N2CCC(c3ccccc3)CC2)nc(N)n1 [Compound 2, 6-(4-phenylpiperidin-1-yl)pyrimidine-2,4-diamine]
motility of the larvae: inhibited motility of the larvae
